Source: patent EP4603105A1, “PHARMACEUTICAL COMPOSITION CONTAINING CYCLIC COMPOUND HAVING SELECTIVE KRAS INHIBITORY EFFECT AGAINST HRAS AND NRAS” (CHUGAI SEIYAKU KABUSHIKI KAISHA, priority 2022, dated 2024)
Read-outs that look alike come from different tables or passages of the source. *1 amine or outer side, *2 acyl side, *3 side chain or, on linkers, in order; H or OH if unused. Where a SMILES comes first, the peptide text is derived from it. Bridges are numbered along the chain shown (N, C = ends). [ ]: non-standard residue; d: D form. The star is where a group is joined. hPhe(3-Cl-4-CF3) = N[C@@H](CCc1ccc(C(F)(F)F)c(Cl)c1)C(=O)O; NPrPhe(4-CF3) = CCCN[C@@H](Cc1ccc(C(F)(F)F)cc1)C(=O)O; X21 = CCCN([C@H](C(=O)[*:2])C1CCCC1)[*:1]; NMeGly(cPent) = CN[C@H](C(=O)O)C1CCCC1; NMeD = CN[C@@H](CC(=O)O)C(=O)O; NMeL = CN[C@@H](CC(C)C)C(=O)O; Morpholide = C1CN(*)CCO1; NMeA = CN[C@@H](C)C(=O)O; Ac5c = NC1(C(=O)O)CCCC1; Aze = O=C(O)[C@@H]1CCN1; Sar = CNCC(=O)O

How the values were obtained:
HRAS wild-type protein = HRAS wild-type protein (Homo sapiens, UniProt P01112); assay: Binding to HRAS by surface plasmon resonance (SPR), KD and KD ratio to KRAS
Summary of the method: (§1)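 Biotinylated GDP-bound RAS was captured at about 100–300 RU. Running buffer: HBS pH 7.4, 10 mM MgCl2, 10 µM GDP, 1 mM DTT, 0.01% Tween 20, 4% DMSO.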

[1] = test system: human lung cancer strain NCI-H441; format: cell-based
Summary of the method: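 Step one: dispense the test compound in serial DMSO dilutions. Step three: add the reagent and measure […].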

[2] = biological target: GDP-bound NRAS wild-type protein (Homo sapiens, UniProt P01111); assay: Binding to NRAS by surface plasmon resonance (SPR), KD and KD ratio to KRAS
Summary of the method: as §1

[3] = ratio of KD for HRAS wild-type protein to KD for KRAS
[4] = ratio of KD for GDP-bound NRAS wild-type protein to KD for KRAS
[5] = ratio of the KD value with respect to HRAS wild-type protein to the KD value with respect to KRAS
[6] = ratio of the KD value with respect to GDP-bound NRAS wild-type protein to the KD value with respect to KRAS
[7] = ratio of KD value for HRAS wild-type protein to KD value for KRAS (SPR)
[8] = ratio of KD value for GDP-bound NRAS wild-type protein to KD value for KRAS (SPR)

Sequence of GDP-bound NRAS wild-type protein (P01111 whole entry): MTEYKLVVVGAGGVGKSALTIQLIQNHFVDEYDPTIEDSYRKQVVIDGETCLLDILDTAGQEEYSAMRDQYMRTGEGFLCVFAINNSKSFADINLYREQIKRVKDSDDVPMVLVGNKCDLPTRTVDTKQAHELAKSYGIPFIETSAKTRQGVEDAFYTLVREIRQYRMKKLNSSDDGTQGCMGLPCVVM
Sequence of HRAS wild-type protein (P01112 whole entry): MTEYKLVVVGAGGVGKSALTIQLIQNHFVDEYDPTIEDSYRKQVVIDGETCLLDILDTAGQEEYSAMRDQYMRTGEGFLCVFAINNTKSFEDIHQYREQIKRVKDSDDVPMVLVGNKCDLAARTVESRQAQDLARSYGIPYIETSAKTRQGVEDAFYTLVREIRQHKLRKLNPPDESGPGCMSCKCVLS

Row | Compound | IC50 [1] [nM] | HRAS /KRAS (HRAS wild-type protein; [3]) | NRAS /KRAS [2, 4] | IC50 ([1]; NCI-H441 cells, 4 days, CellTiter-Glo, read-out: NCl-H441 IC50) [nM] | HRAS /KRAS (HRAS wild-type protein; [5]) | NRAS /KRAS [2, 6] | HRAS /KRAS (HRAS wild-type protein; [7]) | NRAS /KRAS [2, 8]
1 | CC[C@H](C)[C@@H]1NC(=O)[C@H](CC(C)C)N(C)C(=O)C[C@@H](C(=O)N2CCOCC2)N(C)C(=O)[C@H](C2CCCC2)N(C)C(=O)C2(CCC2)NC(=O)[C@@H]2[C@H](OC)CCN2C(=O)[C@H](CCc2cc(F)c(C(F)(F)F)c(F)c2)NC(=O)CN(C)C(=O)[C@H](Cc2ccc(C(F)(F)F)cc2)N2CCCC[C@@H](C2=O)N(C)C(=O)CN(C)C1=O [PP1078] | 610 | B (a compound having 3 or more and less than 10 is denoted as B) | B (a compound having 3 or more and less than 10 is denoted as B) | – | – | – | – | –
2 | CCCN1C(=O)[C@@H]2CCN2C(=O)[C@H](C)N(C)C(=O)[C@H]([C@@H](C)CC)NC(=O)[C@H](CC(C)C)N(C)C(=O)C[C@@H](C(=O)N2CCOCC2)N(C)C(=O)[C@H](C2CCCC2)N(C)C(=O)C2(CCCC2)NC(=O)[C@@H]2CCCN2C(=O)[C@H](CCc2ccc(C(F)(F)F)c(Cl)c2)NC(=O)CN(C)C(=O)[C@@H]1C1CCCC1 [PP0054] ([NMeL]I[NMeA][Aze][X21][Sar][hPhe(3-Cl-4-CF3)]P[Ac5c][NMeGly(cPent)][NMeD]-Morpholide; lactam N-11) | – | C (A compound having a KD ratio of 0.1 or more and less than 3 is denoted as C) | C (A compound having a KD ratio of 0.1 or more and less than 3 is denoted as C) | 82 | – | – | – | –
3 | CCO[C@@H]1C[C@H]2C(=O)NC3(CC(F)(F)C3)C(=O)N(C)[C@@H](C(CC)CC)C(=O)N(C)[C@H](CC)CC(=O)N(C)[C@@H](CC3CC3)C(=O)N[C@@H]([C@@H](C)CC)C(=O)N(C)CC(=O)N(C)[C@H]3C/C=C\CCN(C3=O)[C@@H](Cc3ccc(C(F)(F)F)cc3)C(=O)N(C)CC(=O)N[C@@H](CCc3cc(F)c(C(F)(F)F)c(F)c3)C(=O)N2C1 [PP1632] | 116 | – | – | – | – | – | A (a compound having 10 or more and less than 20 is denoted as A) | A (a compound having 10 or more and less than 20 is denoted as A)
4 | CC[C@H](C)[C@@H]1NC(=O)[C@H](CC(C)C)N(C)C(=O)CSC[C@H](C(=O)N(C)C)N(C)C(=O)[C@H](C2CCCC2)N(C)C(=O)C2(CCCC2)NC(=O)[C@@H]2CCCN2C(=O)[C@@H](CCc2cc(F)c(C(F)(F)F)c(F)c2)NC(=O)CN(C)C(=O)[C@H](Cc2ccc(C(F)(F)F)cc2)N2CC=CC[C@@H](C2=O)N(C)C(=O)CN(C)C1=O [PP3108] | 9250 | B (a compound having 3 or more and less than 10 is denoted as B) | C (A compound having a KD ratio of 0.1 or more and less than 3 is denoted as C) | – | – | – | – | –

The remaining compounds from weak to strong by IC50 [1], led by results:

Row | IC50 [1] [nM] | Compound | HRAS /KRAS (HRAS wild-type protein; [3]) | NRAS /KRAS [2, 4] | IC50 ([1]; NCI-H441 cells, 4 days, CellTiter-Glo, read-out: NCl-H441 IC50) [nM] | HRAS /KRAS (HRAS wild-type protein; [5]) | NRAS /KRAS [2, 6] | HRAS /KRAS (HRAS wild-type protein; [7]) | NRAS /KRAS [2, 8]
5 | 111 | CCC[C@H]1C(=O)N[C@@H]([C@@H](C)CC)C(=O)N(C)CC(=O)N(C)[C@H]2C/C=C\CCN(C2=O)[C@@H](Cc2ccc(C(F)(F)F)cc2)C(=O)N(C)CC(=O)N[C@@H](CCc2ccc(CC)c(Cl)c2)C(=O)N2C[C@H](OCC)C[C@H]2C(=O)NC2(CC(C)(C)C2)C(=O)N(C)[C@@H](C(CC)CC)C(=O)N(C)[C@H](C(=O)N(C)C)CC(=O)N1C [PP2777] | A (a compound having 10 or more and less than 20 is denoted as A) | AA (a compound having 20 or more is denoted as AA) | – | – | – | – | –
6 | 11.4 | CC[C@H](C)[C@@H]1NC(=O)[C@H](CC)N(C)C(=O)C[C@@H](C(=O)N(C)C)N(C)C(=O)[C@H](C2CCCC2)N(C)C(=O)C2(CCC2)N(C)C(=O)[C@@H]2CCCN2C(=O)[C@H](CCc2cc(F)c(C(F)(F)F)c(F)c2)NC(=O)CN(C)C(=O)[C@H](Cc2ccc(C)cc2)N2CC/C=C\C[C@@H](C2=O)N(C)C(=O)[C@@H]2CCCN2C1=O [PP1786] | – | – | – | – | – | B (a compound having 3 or more and less than 10 is denoted as B) | A (a compound having 10 or more and less than 20 is denoted as A)
7 | 7.7 | CCCN(C)C(=O)[C@@H]1CC(=O)N(C)[C@@H](COCC)C(=O)N[C@@H]([C@@H](C)CC)C(=O)N(C)CC(=O)N(C)[C@H]2C/C=C\CCN(C2=O)[C@@H](Cc2ccc(C(F)(F)F)cc2)C(=O)N(C)CC(=O)N[C@@H](CCc2cc(F)c(C(F)(F)F)c(F)c2)C(=O)N2C[C@@H](C)C[C@H]2C(=O)NC2(CC(C)(C)C2)C(=O)N(C)[C@@H](C2CCCC2)C(=O)N1C [PP2041] | – | – | – | A (a compound having 10 or more and less than 20 is denoted as A) | A (a compound having 10 or more and less than 20 is denoted as A) | – | –
8 | 3.9 | CCCN1C(=O)CN(C)C(=O)CNC(=O)[C@H]([C@@H](C)CC)NC(=O)[C@H](CC(C)C)N(C)C(=O)C[C@@H](C(=O)N(C)C)N(C)C(=O)[C@H](C2CCCC2)N(C)C(=O)C2(CCCC2)NC(=O)[C@@H]2CCCN2C(=O)[C@H](CCc2ccc(C(F)(F)F)c(Cl)c2)NC(=O)CN(C)C(=O)[C@@H]1Cc1ccc(C(F)(F)F)cc1 [PP0417] ([NMeL]IG[Sar][NPrPhe(4-CF3)][Sar][hPhe(3-Cl-4-CF3)]P[Ac5c][NMeGly(cPent)][NMeD]-NMe2; lactam N-11) | – | – | – | C (A compound having a KD ratio of 0.1 or more and less than 3 is denoted as C) | B (a compound having 3 or more and less than 10 is denoted as B) | – | –
